Laboratory results published in US20120329758A1, “Combined Treatment Utilizing VB-201” (priority 2010, published 2012).

Key:
[1] = Blood chemistry assay (SGPT, alkaline phosphatase) in rabbits fed a high-cholesterol diet; format: in vivo, male New Zealand White rabbits; settings: 14 weeks of high-cholesterol diet, atorvastatin 2.5 mg/kg, VB-201 4 mg/kg
Experimental: Blood chemistry was assayed by the Pathological Chemistry Institute Laboratory (Sheba Medical Center, Israel) using an AU2700® spectrophotometer (Olympus) and the appropriate Olympus reagents. The parameters evaluated were urea, creatinine, glucose, potassium, sodium, chloride, total calcium, phopshorus, uric acid, bilirubin, SGOT, SGPT, LDH, total CPK, CPK-MB, CK-MB %, total protein, albumin, globulin, alkaline phosphatase and osmolality levels. Atherosclerosis was induced in male New Zealand White rabbits (hsdIF:NZ, Harlan) by supplying the rabbits with a high-cholesterol diet (0.5% w/w cholesterol) for 14 weeks. The rabbits were assigned to four treatment groups (7 or 8 animals per group): a) atorvastatin treatment; b) VB-201 treatment; c) combined atorvastatin+VB-201 treatment; and d) PBS with 0.5% ethanol (control group). […] VB-201 was administered daily (5 days per week) by oral gavage of the stock solution (2.7 mg/ml) at volume of 1.5 ml per kg body weight, corresponding to a dose of approximately 4 mg/kg. At the end of 14 weeks, the rabbits were sacrificed, and the effects of the treatments were evaluated by measurement of aortic lesion areas and plasma cholesterol levels, and routine blood chemistry assessment (as described hereinabove).

[2] = Plasma cholesterol assay in rabbits fed a high-cholesterol diet; format: in vivo, male New Zealand White rabbits; settings: for Average cholesterol level / Average cholesterol level (% of control): plasma, atorvastatin 2.5 mg/kg, VB-201 4 mg/kg; for effect on cholesterol levels (in words): rabbits on high-cholesterol diet, atorvastatin 2.5 mg/kg (alone or with VB-201), VB-201 4 mg/kg per se
Experimental: Plasma cholesterol levels were determined in the Bert W. Strassburger Lipid Center (Sheba Medical Center, Israel) using a Cobas Mira analyzer (Roche) and cholesterol reagent (Roche/Hitach).
(§1) Atherosclerosis was induced in male New Zealand White rabbits (hsdIF:NZ, Harlan) by supplying the rabbits with a high-cholesterol diet (0.5% w/w cholesterol) for 14 weeks. The rabbits were assigned to four treatment groups (7 or 8 animals per group): a) atorvastatin treatment; b) VB-201 treatment; c) combined atorvastatin+VB-201 treatment; and d) PBS with 0.5% ethanol (control group).
Atorvastatin was administered by supplementing the diet with 50 mg/kg atorvastatin, which corresponds to a daily dose of approximately 2.5 mg/kg, based on a daily food consumption of approximately 125 grams per rabbit and an average weight of 2.5 kg.
VB-201 was administered daily (5 days per week) by oral gavage of the stock solution (2.7 mg/ml) at volume of 1.5 ml per kg body weight, corresponding to a dose of approximately 4 mg/kg.
(§2) At the end of 14 weeks, the rabbits were sacrificed, and the effects of the treatments were evaluated by measurement of aortic lesion areas and plasma cholesterol levels, and routine blood chemistry assessment (as described hereinabove). Plasma cholesterol levels were also determined after 5 weeks of the high-cholesterol diet.

[3] = system: atherosclerosis (aortic lesion area) in rabbits fed a high-cholesterol diet; assay: Measurement of aortic lesion area in rabbits fed a high-cholesterol diet; format: in vivo, male New Zealand White rabbits; settings: high-cholesterol diet 14 weeks, atorvastatin approx. 2.5 mg/kg daily in diet, VB-201 approx. 4 mg/kg oral gavage 5 days per week, FIG. 1
Experimental: Aortas were collected upon sacrifice. Lesion area was determined by scanning the intensity of Sudan IV stain adhering to the lesioned tissue, using Image-Pro Plus software (Media Cybernetics). Lesion areas were calculated in three different sections of the aorta (aortic arch, thoracic aorta and abdominal aorta). The total aortic lesion area (sum of lesion areas in all 3 sections) was calculated as a percentage of the sum of all 3 section areas.
as §1, with “group). […]” for “group).”
as §2

C-reactive protein (CRP) = settings: healthy humans; previously shown; cited from earlier work
[4] = system: DSS-induced colitis in mice; assay: Dextran sulfate sodium (DSS)-induced colitis model; format: in vivo; settings: for body weight loss: DSS colitis mice, VB-201 oral daily; for body weight loss / disease activity index (DAI), chronic phase / disease activity index (DAI), acute phase: glatiramer acetate 2 mg per mouse s.c. daily; for disease activity index (DAI), chronic phase: after about day 20; for disease activity index (DAI), chronic phase / disease activity index (DAI), acute phase: VB-201 0.04, 0.4 or 4 mg/kg oral daily, FIG. 3; for disease activity index (DAI), acute phase: until about day 20
Experimental: Colitis was induced in mice with dextran sulfate sodium (DSS), to serve as a model of inflammatory disorders. A solution of 2% DSS was administered in the drinking water of the mice on days 0-4, 19-23 and 32-36 of the experiment.
VB-201 was administered by oral gavage at daily doses of 0.04, 0.4 or 4 mg/kg, beginning 5 days prior to disease induction (i.e., first day of DSS administration). In an alternative treatment, 2 mg per mouse of glatiramer acetate was administered subcutaneously, daily from day 0. Each treatment group included 20 mice. As a negative control, 15 mice were administered vehicle (PBS with 0.5% ethanol) by gavage beginning 5 days prior to disease induction. […], 8 mice were administered vehicle (PBS with 0.5% ethanol) by gavage beginning 5 days prior to disease induction, without treatment with DSS, and 5 mice received no treatment at all. Mice were sacrificed on day 39, and their colon length and weight was determined.
Mice were scored according to a disease activity index (DAI), based on the average score for weight loss, stool consistency and bleeding, as follows: […]

[5] = 5 weeks of high-cholesterol diet
[6] = 14 weeks of high-cholesterol diet
[7] = day 39, VB-201 at all tested doses (0.04, 0.4, 4 mg/kg), glatiramer acetate 2 mg per mouse, FIG. 4
[8] = glatiramer acetate 2 mg per mouse s.c. daily from day 0, FIG. 2

| Compound | Average cholesterol level [2, 5] [mg/dL] | Average cholesterol level (% of control) [2, 5] | Average cholesterol level [2, 6] [mg/dL] | Average cholesterol level (% of control) [2, 6] | effect on cholesterol levels (in words) [2] | reduction of aortic lesion areas relative to the control group [3] [%] | body weight loss [4] | disease activity index (DAI), chronic phase [4] | DSS-induced shortening of the colon length [4, 7] | disease activity index (DAI), acute phase [4] | other results |
| --- | --- | --- | --- | --- | --- | --- | --- | --- | --- | --- | --- |
| CC(C)c1c(C(=O)Nc2ccccc2)c(-c2ccccc2)c(-c2ccc(F)cc2)n1CC[C@@H](O)C[C@@H](O)CC(=O)O [Atorvastatin] | 580 | 56 % of control | 1082 | 64 % of control | reduced cholesterol levels considerably | 33 | – | – | – | – | Average Alkaline Phosphatase level [1]: 104.63 IU/L; Average Alkaline Phosphatase level (% of control) [1]: 174 % of control; Average SGPT level [1]: 110.63 IU/L; Average SGPT level (% of control) [1]: 235 % of control; effect on SGPT and alkaline phosphatase levels (in words) ([1]; rabbits): increased |
| CCCCCCCCCCCCCCCCOCC(COP(=O)([O-])OCC[N+](C)(C)C)OCCCCC(=O)O (stereo not shown) [VB-201, 1-hexadecyl-2-(4′-carboxybutyl)-glycerol-3-phosphocholine] | 1303 | 126 % of control | 2195 | 131 % of control | did not reduce cholesterol levels | 39 | reduced body weight loss over the period of days 17-24 | reduced the DAI | partially reversed | without reducing the DM | C-reactive protein (CRP) levels, a marker for inflammation (C-reactive protein (CRP)): effective at reducing; survival at day 39 ([4]; VB-201 at all tested doses (0.04, 0.4 or 4 mg/kg daily oral gavage), FIG. 2): at least 80%; effect on colon length, compared between doses ([4]; day 39, 0.04 mg/kg VB-201 versus 0.4 and 4 mg/kg, FIG. 4): more effective than the higher doses; DSS-induced increase in the colon weight/length ratios ([4]; day 39, VB-201 at all tested doses (0.04, 0.4, 4 mg/kg), glatiramer acetate 2 mg per mouse, FIG. 5): partially reversed |
| Glatiramer acetate | – | – | – | – | – | – | reduced body weight loss over the period of days 8-22 | did not reduce the DAI | not effective | reduced the DAI | survival by day 39 compared with control mice [4, 8]: below that of control mice; survival until day 23 [4, 8]: 100% |
